{
  "source": "PubChem BioAssay (NCI)",
  "test_in_all_cases": "NCI anticancer screen, dose series, 48 h",
  "key": {"CAKI-1 renal": {"test_system": "CAKI-1 renal"}, "HOP-62 NSCLC": {"test_system": "HOP-62 NSCLC"}, "HOP-92 NSCLC": {"test_system": "HOP-92 NSCLC"}, "K-562 leukemia": {"test_system": "K-562 leukemia"}, "M14 melanoma": {"test_system": "M14 melanoma"}, "MALME-3M melanoma": {"test_system": "MALME-3M melanoma"}, "MOLT-4 leukemia": {"test_system": "MOLT-4 leukemia"}, "NCI-H460 lung": {"test_system": "NCI-H460 lung"}, "RXF 393 renal": {"test_system": "RXF 393 renal"}, "T-47D breast": {"test_system": "T-47D breast"}},
  "note": "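Test compounds were applied to cells in 96-well plates for 48 hours at 5 doses. The concentration for 50% growth inhibition is given as GI50. TGI: concentration producing complete growth inhibition.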",
  "data": [
    {"compound": "O=c1cc(-c2ccc(Cl)cc2)[nH]c2ccccc12", "values": [
      {"measurement": "GI50", "setting": "CAKI-1 renal", "value": 47.3, "unit": "µM"},
      {"measurement": "TGI", "setting": "CAKI-1 renal", "value": "> 100", "unit": "µM"},
      {"measurement": "GI50", "setting": "HOP-62 NSCLC", "value": 61.4, "unit": "µM"},
      {"measurement": "TGI", "setting": "HOP-62 NSCLC", "value": "> 100", "unit": "µM"},
      {"measurement": "GI50", "setting": "HOP-92 NSCLC", "value": 64.2, "unit": "µM"},
      {"measurement": "TGI", "setting": "HOP-92 NSCLC", "value": "> 100", "unit": "µM"},
      {"measurement": "GI50", "setting": "K-562 leukemia", "value": 7.03, "unit": "µM"},
      {"measurement": "TGI", "setting": "K-562 leukemia", "value": "> 100", "unit": "µM"},
      {"measurement": "GI50", "setting": "M14 melanoma", "value": 27.8, "unit": "µM"},
      {"measurement": "TGI", "setting": "M14 melanoma", "value": "> 100", "unit": "µM"},
      {"measurement": "GI50", "setting": "MALME-3M melanoma", "value": 53.5, "unit": "µM"},
      {"measurement": "TGI", "setting": "MALME-3M melanoma", "value": "> 100", "unit": "µM"},
      {"measurement": "GI50", "setting": "MOLT-4 leukemia", "value": 46.8, "unit": "µM"},
      {"measurement": "TGI", "setting": "MOLT-4 leukemia", "value": "> 100", "unit": "µM"},
      {"measurement": "GI50", "setting": "NCI-H460 lung", "value": 39.6, "unit": "µM"},
      {"measurement": "TGI", "setting": "NCI-H460 lung", "value": "> 100", "unit": "µM"},
      {"measurement": "GI50", "setting": "RXF 393 renal", "value": 45.9, "unit": "µM"},
      {"measurement": "TGI", "setting": "RXF 393 renal", "value": "> 100", "unit": "µM"},
      {"measurement": "GI50", "setting": "T-47D breast", "value": 63.2, "unit": "µM"},
      {"measurement": "TGI", "setting": "T-47D breast", "value": "> 100", "unit": "µM"}
    ]}
  ]
}
